Test results published in patent US20050096327A1, “Novel norepinephrine reuptake inhibitors for the treatment of central nervous system disorders” (priority 2003, published 2005).
Counter-ions that a name gives are not always drawn.

These molecules were tested against T1, human norepinephrine transporter (Homo sapiens, UniProt P23975) (assay: hNET receptor binding ([125I]-RTI-55, membranes of transfected HEK-293 cells)). Conditions: 50 pM [125I]-RTI-55, 90 min room temperature; IC50 converted by Cheng-Prusoff.
T1 construct: host or cells: HEK-293
T1 sequence (P23975 whole entry): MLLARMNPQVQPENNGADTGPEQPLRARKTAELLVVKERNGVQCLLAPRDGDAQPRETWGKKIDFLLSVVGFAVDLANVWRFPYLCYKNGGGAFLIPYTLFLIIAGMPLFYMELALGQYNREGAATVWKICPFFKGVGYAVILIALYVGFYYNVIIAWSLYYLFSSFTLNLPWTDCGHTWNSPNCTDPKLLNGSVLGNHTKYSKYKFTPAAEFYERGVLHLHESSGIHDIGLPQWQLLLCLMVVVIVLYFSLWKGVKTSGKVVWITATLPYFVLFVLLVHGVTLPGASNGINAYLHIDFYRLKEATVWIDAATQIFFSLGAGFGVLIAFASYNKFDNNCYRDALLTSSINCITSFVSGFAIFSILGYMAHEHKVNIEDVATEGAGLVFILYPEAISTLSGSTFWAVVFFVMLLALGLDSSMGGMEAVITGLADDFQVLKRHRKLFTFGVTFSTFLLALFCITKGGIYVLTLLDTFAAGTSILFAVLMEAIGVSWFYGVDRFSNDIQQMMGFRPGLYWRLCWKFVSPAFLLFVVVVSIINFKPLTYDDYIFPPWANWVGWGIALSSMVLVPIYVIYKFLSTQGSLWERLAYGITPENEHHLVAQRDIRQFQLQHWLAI
Description: Cell pastes of HEK-293 cells transfected with the human norepinephrine transporter were supplied by the Pfizer Ann Arbor Protein Expression and Production group. Pellets were resuspended in 400 to 700 ml of Krebs-HEPES assay buffer (25 mM HEPES, 122 mM NaCl, 3 mM KCl, 1.2 mM MgSO4, 1.3 mM CaCl2, and 11 mM glucose, pH 7.4) with a Polytron homogenizer at setting 7 for 30 sec. Aliquots of membranes (5 mg/ml protein) were stored in liquid nitrogen until used.
The binding assay was set up in Beckman deep-well polypropylene plates with a total volume of 250 μl containing: drug (10^−5M to 10^−12M), cell membranes, and 50 pM [^125I]-RTI-55 (Perkin Elmer, NEX-272; specific activity 2200 Ci/mmol). The reaction was incubated by gentle agitation for 90 min at room temperature and was terminated by filtration through Whatman GF/C filter plates using a Brandel 96-well plate harvester. Scintillation fluid (100 μl) was added to each well, and bound [^125I]-RTI-55 was determined using a Wallac Trilux Beta Plate Counter. Test compounds were run in duplicate, and specific binding was defined as the difference between binding in the presence and absence of 10 μM desipramine.
Excel and GraphPad Prism software were used for data calculation and analysis. IC50 values were converted to Ki values using the Cheng-Prusoff equation. The Ki values for the hNET are reported below in Table 1.

Molecule | Ki
CN1CCN(c2nc(-c3ccccc3Cl)c3ccccc3n2)CC1 [Example 19, 4-(2-Chloro-phenyl)-2-(4-methyl-piperazin-1-yl)-quinazoline] | 0.0267 µM
c1ccc(-c2nc(C3CCNCC3)nc3ccccc23)cc1 [Example 42, 4-Phenyl-2-piperidin-4-yl-quinazoline hydrochloride] | 0.0133 µM
Fc1cccc(-c2nc(C3CCNCC3)nc3ccccc23)c1F [Example 71, 4-(2,3-Difluoro-phenyl)-2-piperidin-4-yl-quinazoline] | 0.003 µM
Fc1cccc(F)c1-c1nc(N2CCNCC2)nc2ccccc12 [Example 29, 4-(2,6-Difluoro-phenyl)-2-piperazin-4-yl-quinazoline hydrochloride] | 0.0048 µM
Clc1ccccc1-c1nc(C2CCNCC2)nc2ccccc12 [Example 45, 4-(2-Chloro-phenyl)-2-piperidin-4-yl-quinazoline hydrochloride] | 0.0087 µM
c1ccc(-c2nc(N3C4CCCC3CNC4)nc3ccccc23)cc1 [Example 55, 2-(3,9-Diaza-bicyclo[3.3.1]non-9-yl)-4-phenyl-quinazoline] | 0.011 µM
Fc1ccccc1-c1nc(N2CC3CCCC(C2)N3)nc2ccccc12 [Example 33, 2-(3,9-Diaza-bicyclo[3.3.1]non-3-yl)-4-(2-fluoro-phenyl-quinazoline hydrochloride] | 0.019 µM
Fc1ccc(-c2nc(N3CCNCC3)nc3ccccc23)c(Cl)c1 [Example 61, 4-(2-Chloro-4-fluoro-phenyl)-2-piperazin-1-yl-quinazoline] | 0.0069 µM
Fc1ccc(F)c(-c2nc(C3CCNCC3)nc3ccccc23)c1F [Example 73, 2-Piperidin-4-yl-4-(2,3,6-trifluoro-phenyl)-quinazoline] | 0.0159 µM
COc1ccccc1-c1nc(N2CCNCC2)nc2ccccc12 [Example 23, 4-(2-Methoxy-phenyl)-2-piperazin-1-yl-quinazoline hydrochloride] | 0.0295 µM
Clc1ccccc1-c1nc(N2CCNCC2)nc2ccccc12 [Example 22, 4-(2-Chloro-phenyl)-2-piperazin-1-yl-quinazoline hydrochloride] | 0.0048 µM
Cc1ccccc1-c1nc(C2CCNCC2)nc2ccccc12 [Example 76, 2-Piperidin-4-yl-4-o-tolyl-quinazoline] | 0.0447 µM
Fc1cccc(F)c1-c1nc(C2CCNCC2)nc2ccccc12 [Example 70, 4-(2,6-Difluoro-phenyl)-2-piperidin-4-yl-quinazoline] | 0.0029 µM
Fc1cccc(-c2nc(C3CCNCC3)nc3ccccc23)c1 [Example 66, 4-(3-Fluoro-phenyl)-2-piperidin-4-yl-quinazoline] | 0.0055 µM
Fc1ccc2c(-c3ccccc3F)nc(C3CCNCC3)nc2c1 [Example 65, 7-Fluoro-4-(2-fluoro-phenyl)-2-piperidin-4-yl-quinazoline] | 0.0033 µM
CN[C@H]1CCN(c2nc(-c3ccccc3F)c3ccccc3n2)C1 [Example 35, (S)-(+)-1-[4-(2-Fluoro-phenyl)-quinazolin-2-yl]-pyrrolidin-3-yl}-methyl-amine hydrochloride] | 0.0193 µM
c1ccc(-c2nc(N[C@H]3CCNC3)nc3ccccc23)cc1 [Example 17, (S)-(−)-3-(4-Phenyl-quinazolin-2-yl)-aminopyrrolidine hydrochloride] | 0.045 µM
CN1CCC(c2nc(-c3cccc(F)c3)c3ccccc3n2)CC1 [Example 67, 4-(3-Fluoro-phenyl)-2-(1-methyl-piperidin-4-yl)-quinazoline] | 0.0535 µM
c1ccc(-c2nc(N3CC4CC3CN4)nc3ccccc23)cc1 (centres unmarked) [Example 10, 2-(2,5-Diaza-bicyclo[2.2.1]hept-2-yl)-4-phenyl-quinazoline hydrochloride] | 0.0034 µM
CN1CCC(c2nc(-c3c(F)cccc3F)c3ccccc3n2)CC1 [Example 69, 4-(2,6-Difluoro-phenyl)-2-(1-methyl-piperidin-4-yl)-quinazoline] | 0.0379 µM
Fc1ccc(-c2nc(C3CCNCC3)nc3ccccc23)c(F)c1 [Example 72, 4-(2,4-Difluoro-phenyl)-2-piperidin-4-yl-quinazoline] | 0.0177 µM
c1ccc(-c2nc(N3CC4CNCC4C3)nc3ccccc23)cc1 (centres unmarked) [Example 81, 2-(Hexahydro-pyrrolo[3,4-c]pyrrol-2-yl)-4-phenyl-quinazoline] | 0.061 µM

Molecule | Ki
2-Piperazin-1-yl-4-s-tolyl-quinazoline hydrochloride [Example 53] | 0.0105 µM
c1ccc(-c2nc(N3CC4CC3CN4)nc3ccccc23)cc1 (centres unmarked) [Example 80, 2-(2,5-Diaza-bicyclo[2.2.1]hept-2-yl)-4-phenyl-quinazoline] | 0.0095 µM
Fc1ccccc1-c1nc(C2(c3ccccc3)CCNCC2)nc2ccccc12 [Example 79, 4-(2-Fluoro-phenyl)-2-(4-phenyl-piperidin-4-yl)-quinazoline] | 0.0634 µM
Fc1ccccc1-c1nc(C2CCCNC2)nc2ccccc12 (centres unmarked) [Example 77, 4-(2-Fluoro-phenyl)-2-piperidin-3-yl-quinazoline] | 0.0228 µM
CN1CCC(c2nc(-c3ccccc3F)c3ccccc3n2)CC1 [Example 43, 4-(2-Fluoro-phenyl)-2-(1-methyl-piperidin-4-yl)-quinazoline] | 0.0292 µM
COc1ccccc1-c1nc(C2CCNCC2)nc2ccccc12 [Example 46, 4-(2-Methoxy-phenyl)-2-piperidin-4-yl-quinazoline hydrochloride] | 0.0603 µM
Clc1cccc(Cl)c1-c1nc(N2CCNCC2)nc2ccccc12 [Example 63, 4-(2,6-Dichloro-phenyl)-2-piperazin-1-yl-quinazoline] | 0.0176 µM
c1ccc(-c2nc(N3CCNCC3)nc3ccccc23)cc1 [Example 3, 4-Phenyl-2-piperazin-1-yl-quinazoline] | 0.0048 µM
Fc1cccc(F)c1-c1nc(N[C@H]2CCNC2)nc2ccccc12 [Example 58] | 0.008 µM
Fc1ccc2nc(C3CCNCC3)nc(-c3ccccc3F)c2c1 [Example 64, 6-Fluoro-4-(2-fluoro-phenyl)-2-piperidin-4-yl-quinazoline] | 0.0177 µM
Fc1cccc(-c2nc(N3CCNCC3)nc3ccccc23)c1 [Example 60, 4-(3-Fluoro-phenyl)-2-piperazin-1-yl-quinazoline] | 0.0041 µM
C[C@@H]1CN(c2nc(-c3ccccc3)c3ccccc3n2)CCN1 [Example 31, (R)-(+)-2-(3-Methyl-piperazin-1-yl)-4-phenyl-quinazoline] | 0.0345 µM
Cc1ccccc1-c1nc(C2CCCNC2)nc2ccccc12 (centres unmarked) [Example 78, 2-Piperidin-3-yl-4-o-tolyl-quinazoline] | 0.0198 µM
CN1CCC(c2nc(-c3ccccc3Cl)c3ccccc3n2)CC1 [Example 44, 4-(2-Chloro-phenyl)-2-(1-methyl-piperidin-4-yl)-quinazoline] | 0.0625 µM
Fc1ccccc1-c1nc(C2CCNCC2)nc2ccccc12 [Example 41, 4-(2-Fluoro-phenyl)-2-(piperidin-4-yl)-quinazoline hydrochloride] | 0.004 µM
Fc1ccc(-c2nc(C3CCNCC3)nc3ccccc23)cc1 [Example 68, 4-(4-Fluoro-phenyl)-2-piperidin-4-yl-quinazoline] | 0.0406 µM
CN1CCC(c2nc(-c3c(F)cccc3Cl)c3ccccc3n2)CC1 [Example 74, 4-(2-Chloro-6-fluoro-phenyl)-2-(1-methyl-piperidin-4-yl)-quinazoline] | 0.0229 µM
c1ccc(Cc2nc(N3CCNCC3)nc3ccccc23)cc1 [Example 28, 4-Benzyl-2-piperazin-1-yl-quinazoline hydrochloride] | 0.0934 µM
Clc1ccc(-c2nc(N3CCNCC3)nc3ccccc23)cc1 [Example 62, 4-(4-Chloro-phenyl)-2-piperazin-1-yl-quinazoline] | 0.0173 µM
Fc1cccc(Cl)c1-c1nc(C2CCNCC2)nc2ccccc12 [Example 75, 4-(2-Chloro-6-fluoro-phenyl)-2-piperidin-4-yl-quinazoline] | 0.0059 µM
4-(2,4-Difluoro-phenyl)-2-piperazin-1-yl)-quinazoline hydrochloride [Example 38] | 0.002 µM
NCCNc1nc(-c2ccccc2)c2ccccc2n1 [Example 13, N^1-(4-Phenyl-quinazolin-2-yl)-ethane-1,2-diamine hydrochloride] | 0.0892 µM
